The results in this text go back to article PMC5242521 (PLoS ONE, 2017).

In general, IC50 refers to the concentration needed to halve the response being measured. Lower therefore signals inhibition by little substance. The term inhibition denotes the drop in the measured response relative to a control, in per cent. Higher therefore signals a strong effect. In general, EC50 refers to the concentration at which the effect is half-maximal.

In data set [1] the target is T1, OAT3 (Homo sapiens, UniProt Q8TCC7).
T1 sequence (Q8TCC7 1-542): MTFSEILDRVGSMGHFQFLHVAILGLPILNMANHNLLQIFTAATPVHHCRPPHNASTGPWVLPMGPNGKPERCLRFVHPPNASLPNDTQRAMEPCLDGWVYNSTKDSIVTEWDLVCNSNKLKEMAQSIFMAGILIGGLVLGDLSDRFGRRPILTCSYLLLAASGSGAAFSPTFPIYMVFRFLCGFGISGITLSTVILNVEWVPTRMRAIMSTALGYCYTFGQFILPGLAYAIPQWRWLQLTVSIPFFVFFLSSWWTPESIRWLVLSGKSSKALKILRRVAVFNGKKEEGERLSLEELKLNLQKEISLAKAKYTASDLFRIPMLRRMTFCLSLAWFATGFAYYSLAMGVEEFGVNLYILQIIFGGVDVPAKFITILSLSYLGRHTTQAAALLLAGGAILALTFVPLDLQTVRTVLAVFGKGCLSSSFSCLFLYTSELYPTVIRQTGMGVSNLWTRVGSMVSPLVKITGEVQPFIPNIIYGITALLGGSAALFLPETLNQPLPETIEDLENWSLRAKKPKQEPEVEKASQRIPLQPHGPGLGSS
The data set is described as follows: OAT3 activity: fluorescein accumulation in HEK-OAT3 cells. As to conditions: for effect on OAT3 activity: pyrethroid 100 μM; for inhibition at 100 μM: human, pH 7.4. The protocol: (§1) The effects of pyrethroids on activity of ABC and SLC transporters were determined through measuring cellular accumulation or retention of fluorescent or radiolabeled reference substrates for transporters, in the presence or absence of reference inhibitors, as previously described. The nature of cells and reference substrates and inhibitors used for transport assays are summarized in S3 Table.
For accumulation assays (performed for all transporters, excepted BCRP), transporter-expressing cells usually cultured in 48-well plates were first incubated at 37°C with reference substrates in the absence (control) or presence of pyrethroids or reference inhibitors, in a well-defined transport assay medium, consisting of 136 mM NaCl, 5.3 mM KCl, 1.1mM KH2PO4, 0.8 mM MgSO4, 1.8 mM CaCl2, 10 mM HEPES, 11 mM D-glucose and adjusted to pH = 7.4 (excepted for MATE transporter assays, for which pH was set to 8.4). The nature of substrates and reference inhibitors and the incubation times with substrates, that varied according to the transporter, were selected in agreement with previous studies and are indicated in S3 Table. The total incubation volume with substrates was 200 μL/well. After washing twice in phosphate-buffered saline (PBS) (200 μL/well/washing), cells were lysed in distilled water (155 μL/well). An aliquot of cell lysate (5 μL) was then taken for determining cellular protein content by the Bradford method. The rest of lysate (150 μL/well) was used for measuring intracellular accumulation of reference substrates by scintillation counting or spectrofluorimetry using a SpectraMax Gemini SX spectrofluorometer (Molecular Devices, Sunnyvale, CA, USA) (excitation and emission wavelengths were 485 and 535 nm, respectively, for rhodamine 123 and fluorescein, and 355 and 460 nm, respectively, for DAPI).
(§2) Intracellular concentrations of reference substrates were initially expressed as fluorescence arbitrary units (for fluorescent dye substrates) or as moles (for radiolabeled substrates) and normalized to cellular protein content, determined by the Bradford method. They were finally used for calculating percentage of transporter activity, according to the following equations [41, 45]: %ABCtransporter activity=([Substrateref inh]-[Substratepyrethroid])×100/([Substrateref inh]-[Substratecontrol]) (1) %SLC transporter activity=([Substratepyrethroid]-[Substratref inh])×100/([Substratecontrol]-[Substrateref inh]) (2) with [Substratepyrethroid] = cellular concentration of reference substrate in the presence of pyrethroid, [Substrateref inh] = cellular concentration of reference substrate in the presence of reference inhibitor and [Substratecontrol] = cellular concentration of reference substrate in control cells not exposed to pyrethroid or reference inhibitor.
(§3) The initial tested concentration of pyrethroids was 100 μM. […] Such concentrations were calculated using GraphPad Prism software (GraphPad Software, La Jolla, CA), through nonlinear regression based on the four parameter logistic function using the following equations: […]

The target of data set [2] is T2, OATP2B1 (Homo sapiens, UniProt O94956).
T2 sequence (O94956 1-709): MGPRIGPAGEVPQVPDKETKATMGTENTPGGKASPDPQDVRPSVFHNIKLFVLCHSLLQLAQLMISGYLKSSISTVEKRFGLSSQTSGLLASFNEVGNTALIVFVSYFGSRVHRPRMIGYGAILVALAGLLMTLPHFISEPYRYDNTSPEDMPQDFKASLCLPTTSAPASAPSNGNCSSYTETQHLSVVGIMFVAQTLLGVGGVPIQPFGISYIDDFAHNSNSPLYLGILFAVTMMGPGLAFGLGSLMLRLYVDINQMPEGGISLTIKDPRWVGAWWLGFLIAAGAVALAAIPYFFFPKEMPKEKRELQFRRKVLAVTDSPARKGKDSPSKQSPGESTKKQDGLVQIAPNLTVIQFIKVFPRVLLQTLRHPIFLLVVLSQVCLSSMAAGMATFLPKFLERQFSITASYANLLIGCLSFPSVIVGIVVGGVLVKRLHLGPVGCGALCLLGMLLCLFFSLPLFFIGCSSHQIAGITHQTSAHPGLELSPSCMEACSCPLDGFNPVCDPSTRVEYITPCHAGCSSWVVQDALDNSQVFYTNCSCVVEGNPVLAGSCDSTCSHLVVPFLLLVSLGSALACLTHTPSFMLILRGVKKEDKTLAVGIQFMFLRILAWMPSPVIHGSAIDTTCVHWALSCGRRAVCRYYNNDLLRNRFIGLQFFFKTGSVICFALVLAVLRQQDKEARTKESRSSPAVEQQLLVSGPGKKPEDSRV
In words: OATP2B1 activity: E3S accumulation in HEK-OATP2B1 cells. The conditions noted are these: for effect on OATP2B1 activity: pyrethroid 100 μM. The protocol: as §1
The nature of substrates and reference inhibitors and the incubation times with substrates, that varied according to the transporter, were selected in agreement with previous studies and are indicated in S3 Table. The total incubation volume with substrates was 200 μL/well. […] An aliquot of cell lysate (5 μL) was then taken for determining cellular protein content by the Bradford method.
as §2, §3

On to `C#CCN1CC(=O)N(COC(=O)[C@@H]2C(C=C(C)C)C2(C)C)C1=O` (mixture of isomers) [imiprothrin], for which, in data set [1], the “effect on OAT3 activity” value is on record as “inhibited”. Further, in data set [2], the “effect on OATP2B1 activity” value is “cis-stimulated”.
As to `C=CCC1=C(C)C(OC(=O)C2C(C=C(C)C)C2(C)C)CC1=O` (centres unmarked) [allethrin], in data set [1], the 50% inhibitory concentration (IC50) turned out to be 69.4 µM and the inhibition at 100 μM worked out at 74.8%. In data set [2], the midpoint of the response, the EC50, lay at 37.8 µM and the “effect on OATP2B1 activity” value is recorded as “cis-stimulated”.
For the molecule `C#CCC1=C(C)C(OC(=O)C2C(C=C(C)C)C2(C)C)CC1=O` (centres unmarked) [prallethrin], the “effect on OAT3 activity” value in data set [1] is recorded as “inhibited”. For the same molecule, the “effect on OATP2B1 activity” value in data set [2] is on record as “cis-stimulated”.
In data set [1], `CC(C)=CC1C(C(=O)OCN2C(=O)C3=C(CCCC3)C2=O)C1(C)C` (centres unmarked) [tetramethrin] registered a 50% inhibitory concentration (IC50) of 77.6 µM and an inhibition at 100 μM of 69.3%. In data set [2], this molecule showed a concentration giving a half-maximal response (EC50) of 10.1 µM.
